{"source": "patent US20110105436A1", "about": "“HETEROARYL COMPOUNDS, COMPOSITIONS, AND METHODS OF USE IN CANCER TREATMENT” (AUCKLAND UNISERVICES LIMITED, priority 2008, published 2011)", "key": {"RCC4 cells": {"tested_on": "RCC4 cells", "experiment": "XTT assay in VHL-deficient RCC4 cells", "type": "cell-based", "in_short": "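RCC4 cells with and without VHL seeded at 5000/well, then exposed next day to serially diluted compound (DMSO vehicle) for four days. Viability read by XTT (0.3 mg/ml) with PMS, 1-2 h at 37° C, absorbance at 450 nm.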"}, "LC3": {"tested_on": "LC3", "experiment": "LC3 processing by Western blot and immunostaining", "type": "cell-based", "settings": "STF-62247 treatment, FIG. 2D, 2E", "method": "Western blot analysis. After treatments, cells were lysed in urea buffer (9M urea, 75 mM Tris (pH 7.5), 150 mM b-mercaptoethanol), placed on ice for 10 minutes and sonicated briefly (15 seconds). Extracts were centrifugated at 8,000×g for 10 minutes to eliminate insoluble material. Lysates were quantitated using Bio-Rad protein Assay (Bio-Rad Laboratories) and 20-30 μg of proteins were separated on a 7.5% or 15% bis-acrylamide gels and then transferred onto PVDF membranes. Proteins were visualized using HIF-2α (Novus Biological), HIF-1α, pVHL and BiP (BD Biosciences), LC3 (MBL), Atg5, or α-tubulin antibodies.\nImmunofluorescence staining. Cells were seeded on glass coverslips and at subconfluence, STF-62247 was added at 1.25 μM for RCC4 and 3.75 μM for SN12C. After 20 hours, cells were fixed in 3.7% formaldehyde for 10 min at room temperature and washed in PBS. Then cells were permeabilized in 0.2% Triton X-100 for 5 min at room temperature and washed in PBS. The coverslips were incubated with primary antibody LC3 diluted 1:500 in PBS containing 0.2% BSA for 1 hour at room temperature. Cells were washed three times in PBS-BSA and the bound primary antibody was detected using a fluorescein-conjugated secondary antibody (ALEXA) diluted 1:500 in PBS-BSA and incubated for 1 hour. Coverslips were washed and mounted in mounting medium from Vector Laboratories according to the manufacturer's instructions. Cells were examined with a confocal microscope\nA. Phase contrast pictures of VHL-deficient RCC4 and SN12C-VHL shRNA cells and VHL-positive cells RCC4 and SN12C after 20 hrs of 1.25 μM STF-62247. B. Immunostaining for LC3 following STF-62247 treatment at 1.25 μM for 20 hrs with or without 2 mM of 3-MA in RCC4 with and without VHL cells. After treatment, cells were fixed, permeabilized and processed for the detection of punctuate staining by indirect immunofluorescence. C. Autophagic vacuoles stained with monodansylcadaverine (MDC). After STF-62247 treatment in the same conditions, MDC was added for the last 10 minutes. Cells were fixed, washed with PBS and observed directly under microscope. D. Western blot for LC3 in RCC4, RCC4/VHL, SN12C, and SN12C-VHL shRNA cells after STF-62247 treatment with or without 3-MA. Nutrient starvation (EBSS) is used as positive control. E. Western blot for LC3 in RCC4 and RCC4/VHL with different concentrations of STF-62247. Tubulin was used as loading control. F. Cell viability assay in VHL-deficient RCC4 and wild-type VHL cells treated with 1 mM of 3-MA, 1.25 μM of STF-62247 alone or in combination for 24 hrs. Viability is measured by trypan blue exclusion assay and is represented by the average of three different experiments in duplicate as the percent of treated on untreated cells. The error bars are represented as SEM.\nA. VHL-deficient RCC4 and wild-type VHL were incubated in presence of 10 μM LY294002, or 1 μg/mlBrefeldin A with 1.25 μM of STF-62247 for 20 hrs and the presence of vacuoles was examined under light microscopy. B,C. LC3 processing was evaluated by Western blot after the treatment with Brefeldin A or LY294002 in presence or absence of STF-62247 as described above. Tubulin was used as loading control. D. Cells were treated with 1.25 μM of STF-62247 with or without 2 mM of 3-MA, 1 μg/ml of Brefeldin A for 20 hrs. For the last 15 min, acidic components were stained with 1 μg/ml of acridine orange and visualized under fluorescence microscope. […] F. Quantification of the FACS analysis. The data are calculated as the average of three different experiments as relative units of treated over untreated cells. The error bars are represented as the standard error of the mean (SEM).\nB,C. LC3 processing was evaluated by Western blot after the treatment with U0126 or tunicamycin in presence or absence of STF-62247 as described above. Tubulin was used as loading control."}}, "note": "“Also recorded” adds a separate entry of the source."}
{"molecule": "Cc1cccc(Nc2nc(-c3ccncc3)cs2)c1", "note": "[Compound 5, N-(3-Methylphenyl)-4-(4-pyridinyl)-1,3-thiazol-2-amine]", "values": [{"measurement": "IC50", "setting": "RCC4 cells; Homo sapiens, 96 h, Table 1, XTT assay, VHL-deficient RCC4 cells, four days", "result": 2100, "unit": "nM"}, {"measurement": "viability in a short term assay", "setting": "RCC4 cells; XTT, 0-40 μM, FIG. 7B", "result": "decreases the viability of VHL-deficient cells in a short term assay"}, {"measurement": "LC3-II (lipidated form)", "setting": "LC3", "result": "induced by STF-62247 treatment; also recorded: increases in a concentration-dependent manner"}]}
